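Method: 48-hour compound exposure of cells in 96-well plates, five concentrations, linear interpolation of endpoints. Definition used: TGI = concentration required for complete inhibition of growth.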
Columns and labels:
Experiment in all cases: inhibition of tumour cell growth, NCI panel, 48 h
HCT-116 colon = test system: HCT-116 colon
SNB-19 CNS = test system: SNB-19 CNS
SK-MEL-2 melanoma = test system: SK-MEL-2 melanoma
SR leukemia = test system: SR leukemia
OVCAR-5 ovarian = test system: OVCAR-5 ovarian
786-0 renal = test system: 786-0 renal
NCI-H460 lung = test system: NCI-H460 lung
UACC-62 melanoma = test system: UACC-62 melanoma
UACC-257 melanoma = test system: UACC-257 melanoma
HCC-2998 colon = test system: HCC-2998 colon
HCT-15 colon = test system: HCT-15 colon
SNB-75 CNS = test system: SNB-75 CNS
OVCAR-3 ovarian = test system: OVCAR-3 ovarian
SK-OV-3 ovarian = test system: SK-OV-3 ovarian
SF-539 CNS = test system: SF-539 CNS
MDA-MB-231 breast = test system: MDA-MB-231 breast
M14 melanoma = test system: M14 melanoma
PC-3 prostate = test system: PC-3 prostate
OVCAR-4 ovarian = test system: OVCAR-4 ovarian
TK-10 renal = test system: TK-10 renal
BT-549 breast = test system: BT-549 breast
CCRF-CEM leukemia = test system: CCRF-CEM leukemia
HT29 colon = test system: HT29 colon
MALME-3M melanoma = test system: MALME-3M melanoma
ACHN renal = test system: ACHN renal
HL-60(TB) leukemia = test system: HL-60(TB) leukemia
U251 CNS = test system: U251 CNS
SF-295 CNS = test system: SF-295 CNS
A498 renal = test system: A498 renal
MCF7 breast = test system: MCF7 breast
SF-268 CNS = test system: SF-268 CNS
NCI-H23 lung = test system: NCI-H23 lung
NCI/ADR-RES ovarian = test system: NCI/ADR-RES ovarian
OVCAR-8 ovarian = test system: OVCAR-8 ovarian
UO-31 renal = test system: UO-31 renal
NCI-H522 lung = test system: NCI-H522 lung
HOP-62 NSCLC = test system: HOP-62 NSCLC
SN12C renal = test system: SN12C renal
RPMI-8226 leukemia = test system: RPMI-8226 leukemia
CAKI-1 renal = test system: CAKI-1 renal
MDA-N = test system: MDA-N
SK-MEL-28 melanoma = test system: SK-MEL-28 melanoma
KM12 colon = test system: KM12 colon
IGROV1 ovarian = test system: IGROV1 ovarian
COLO 205 colon = test system: COLO 205 colon
RXF 393 renal = test system: RXF 393 renal
LOX IMVI melanoma = test system: LOX IMVI melanoma
SK-MEL-5 melanoma = test system: SK-MEL-5 melanoma
EKVX NSCLC = test system: EKVX NSCLC
DU-145 prostate = test system: DU-145 prostate
SW-620 colon = test system: SW-620 colon
MOLT-4 leukemia = test system: MOLT-4 leukemia
A549 NSCLC = test system: A549 NSCLC
MDA-MB-435 = test system: MDA-MB-435
T-47D breast = test system: T-47D breast
HS 578T breast = test system: HS 578T breast
NCI-H226 lung = test system: NCI-H226 lung
K-562 leukemia = test system: K-562 leukemia

Measured: TGI

COc1ccc(-c2c3ccccc3c(-c3ccc(OCCBr)cc3)c3ccccc23)cc1
1.61 µM: UO-31 renal
not listed: K-562 leukemia
> 100 µM: all other assays above

O=C(O)CCC(N=C(C(=NC(CCC(=O)O)C(=O)O)c1ccccc1)c1ccccc1)C(=O)O (configuration not stated)
not listed: SF-539 CNS | CCRF-CEM leukemia | HT29 colon | MALME-3M melanoma | HL-60(TB) leukemia | NCI-H522 lung | CAKI-1 renal | IGROV1 ovarian | SK-MEL-5 melanoma
> 100 µM: all other assays above

CCCCCC(=O)n1[nH]c(=O)n(-c2ccc(OC)cc2)c1=O
not listed: SF-539 CNS | A498 renal
> 100 µM: all other assays above

Source: PubChem BioAssay (NCI)
